Literature values as cited in US20170364630A1, “IDENTIFICATION OF CELLULAR ANTIMICROBIAL DRUG TABLETS THROUGH INTERACTOME ANALYSIS” (Vanderbilt University, priority 2014, published 2017).
In brackets after ≈: the same amount, converted by molar mass.

Tests used:
[1] = tested on: Ebola-related genes (MERTK, FURIN, TYRO3, CTSB, NADK, POLH, TAPT1); conditions: CMap data, FIG. 8
hepatitis C virus (HCV) = conditions: cell-based quantitative high-throughput screening, He et al. 2015; read-out: EC50, anti-HCV activity
[2] = molecular target: HIV-1 reverse transcriptase (Human immunodeficiency virus type 1 group M subtype B, UniProt P04585); conditions: Tan et al. 1991; read-out: IC50 against the HIV-1 reverse transcriptase
HIV-1 [3] = conditions: approximate value, Guendel et al. 2010; read-out: IC50, inhibitor of HIV-1
HIV-1 [4] = conditions: Szlavik et al. 2004
human enterovirus 71 = conditions: human enterovirus 71-infected mice
[5] = tested on: poliovirus-infected HeLa cells
calcium channel protein = conditions: Fish and Antzelevitch 2004

## CC1(C)S[C@@H]2[C@H](NC(=O)[C@H](NC(=O)N3CCNC3=O)c3ccccc3)C(=O)N2[C@H]1C(=O)O [azlocillin]
[1]
  Down-regulated host genes following drug treatment: TAPT1 and TYRO3
  Up-regulated host genes following drug treatment: NADK and POLH

## CN1CCCN(C(c2ccccc2)c2ccc(Cl)cc2)CC1 (stereo not drawn) [homochlorcyclizine]
Hepatitis C virus (HCV)
  EC50: 0.47 µM

## C[n+]1cc2c3c(ccc2c2ccc4cc5c(cc4c21)OCO5)OCO3 [sanguinarine nitrate]
[2]
  IC50: 150 to 451 µM

## O=C1Cc2c([nH]c3ccc([N+](=O)[O-])cc23)-c2ccccc2N1 [alsterpaullone]
HIV-1 [3]
  IC50: ~0.15 µM

## O[C@H]1[C@H]2c3cc4c(cc3CN3CCC(=C[C@@H]1O)[C@H]23)OCO4 [lycorine]
HIV-1 [4]
  IC50, anti-HIV-1 activity in MT4 cells: 0.4 µg/mL (≈ 1.39 µM)
Human enterovirus 71
  Effect on mortality of infected mice: reduces mortality
[5]
  Effect on viral protein synthesis: inhibits viral protein synthesis

## CC[C@H]1[C@@H]2C[C@H]3[C@@H]4N(C)c5ccccc5[C@]45C[C@@H]([C@H]2[C@H]5O)N3[C@@H]1O [ajmaline]
Calcium channel protein
  Concentration exerting comparable pharmacological activity by inhibiting calcium channel protein activity: ≤ 20 μM
[1]
  Up-regulated host genes following drug treatment: MERTK, FURIN, TYRO3, FURIN, and CTSB

## CN1C(C(=O)Nc2ccccn2)=C(O)c2ccccc2S1(=O)=O [piroxicam]
[1]
  Up-regulated host genes following drug treatment: FURIN and MERTK

## Clc1ccc(Cn2c(CN3CCCC3)nc3ccccc32)cc1 [clemizole]
Hepatitis C virus (HCV)
  EC50: 7.15 µM
